Experimental data from publication PMC11178787, “Development of a natural product optimization strategy for inhibitors against MraY, a promising antibacterial target” (Nature Communications, 2024).

Tests used:
E. cloacae ATCC 13047 = system: T1, E. cloacae ATCC 13047; test: microbe, parasite or virus in culture; settings: Enterobacter cloacae, ATCC13047
T1 construct: ATCC 13047
Procedure: (§1) MICs were determined by a microdilution broth method as recommended by the CLSI with MHB-II. For MICs of stable analogues, a 2-fold dilution of each compound was prepared in DMSO at 100-fold of the final concentration. The strains were inoculated with 5 × 10^5 cfu/mL in 96-well plates (each 100 μL/well), and 1 μL of DMSO solutions of the samples were added (contained less than 1% DMSO). The plates were incubated at 37 °C for 18 h and then MICs were determined. MICs of stable analogues in Table 1 were the highest value in three trials. MICs in Supplementary Table 1 were determined in one trial.  Fig. 2 Results of biological evaluations of hydrazone library. a General structures of hydrazine fragment moiety are shown. Each hydrazine class are represented by different colours (green; BZ, cyan; PA, grey; AC, yellow; AA, orange; LA). b–h MraY inhibitory activity and antibacterial activity of the hydrazone library. The bar graphs show the relative enzyme activity with DMSO as 100% when the compound is treated at given concentration (b,c; TUN at 100 nM, d,e; MRY at 10 nM, f.g; MRD at 100 nM, h; CAP at 1000 nM. n = 1), with the lower bars indicating higher inhibitory activity. The colour of the bars corresponds to Fig. 2a. […] Data of control compounds (van: vancomycin, col: colistin) are shown left column in each panel. E. faecium ATCC 35667, S. aureus ATCC 29213, P. aeruginosa ATCC 27853, K. pneumoniae ATCC 13883, E. cloacae ATCC 13047, A. baumannii ATCC 19606, E. coli ATCC 25922.

E. faecium ATCC 35667 = system: T2, E. faecium ATCC 35667; test: microbe, parasite or virus in culture; settings: Enterococcus faecium, ATCC35667
T2 construct: ATCC 35667
Procedure: as §1

| SMILES | MIC (E. cloacae ATCC 13047) | MIC (E. faecium ATCC 35667) |
| --- | --- | --- |
| CC1(C)S[C@@H]2[C@H](NC(=O)[C@H](N)c3ccccc3)C(=O)N2[C@H]1C(=O)O [ampicillin] | > 50 µM | < 0.5 µM |
| CN[C@H](CC(C)C)C(=O)N[C@H]1C(=O)N[C@@H](CC(N)=O)C(=O)N[C@H]2C(=O)N[C@H]3C(=O)N[C@H](C(=O)N[C@H](C(=O)O)c4cc(O)cc(O)c4-c4cc3ccc4O)[C@H](O)c3ccc(c(Cl)c3)Oc3cc2cc(c3O[C@@H]2O[C@H](CO)[C@@H](O)[C@H](O)[C@H]2O[C@H]2C[C@](C)(N)[C@H](O)[C@H](C)O2)Oc2ccc(cc2Cl)[C@H]1O [vancomycin] | > 50 µM | < 0.5 µM |
